Reference: patent publication US9896447B2, “TrkA kinase inhibitors, compositions and methods thereof” (MERCK SHARP & DOHME CORP., priority 2013, dated 2018)
pIC50: −log10 of the molar value.

molecular target: TrkA receptor (Homo sapiens (Human), UniProt P04629); assay: DiscoverX PathHunter TrkA functional assay (U2OS cells, NGF stimulated); format: cell-based; settings: U2OS cells expressing TrkA-Prolink and Shc1-EA; compound 1 hour, then EC80 of NGF for 3 hours; luminescence
Method: TrkA functional activity was measured using a DiscoverX PathHunter assay. In this assay, U2OS cells are express TrkA receptor as a fusion with the weakly complementing fragment of B-galactosidase, which DiscoverX calls “Prolink (PK)”; additionally, Shc1 is fused with a larger fragment, which is called “Enzyme Acceptor (EA)”. Activation of the TrkA receptor, upon NGF addition, results in the kinase domain being phosphorylated, resulting in subsequent recruitment of Shc1-EA protein. That recruitment results in an active B-galactosidase enzyme that is detected by addition of a chemiluminescent substrate.
All reagents were purchased from DiscoverX, except for the receptor agonists (NGF, BDNF, NT3) which were purchased from Peprotech. Cells were expanded and frozen into cryovials (TrkA p75 @ passage 13, 1.5×10^7 cells/vial; TrkC p75 @ passage 11, 1.5×10^7 cells/vial in InVitrogen Recovery Cell Freezing media), and stored in the vapor phase of liquid nitrogen, and thawed immediately before use. Thawed cells were added to a 384-well plate (BD Falcon 384-well white/clear, TC surface 120 uL assay plates (353963), 20 uL of 0.375e6 cells/mL=>7500 cells/well), and allowed to incubate overnight. Compound (10 mM starting dose: 202.5 nL compound yielding 0.81% DMSO final in total assay volume and starting doses 81 uM) was added the following morning and allowed to incubate on cells for 1 hour. Then, 5 uL EC80 of agonist (NGF for TrkA; BDNF for TrkB; NT3 for TrkC) was added and allowed to incubate for 3 hours at room temperature. DiscoverX PathHunter detection reagent is added (12 uL to plate and components diluted in parts as per kit instructions) and the plate is further incubated for 1 hour in the dark. The plate is read via luminescence on the Perkin Elmer Envision.

Sequence of TrkA receptor (P04629 33-796): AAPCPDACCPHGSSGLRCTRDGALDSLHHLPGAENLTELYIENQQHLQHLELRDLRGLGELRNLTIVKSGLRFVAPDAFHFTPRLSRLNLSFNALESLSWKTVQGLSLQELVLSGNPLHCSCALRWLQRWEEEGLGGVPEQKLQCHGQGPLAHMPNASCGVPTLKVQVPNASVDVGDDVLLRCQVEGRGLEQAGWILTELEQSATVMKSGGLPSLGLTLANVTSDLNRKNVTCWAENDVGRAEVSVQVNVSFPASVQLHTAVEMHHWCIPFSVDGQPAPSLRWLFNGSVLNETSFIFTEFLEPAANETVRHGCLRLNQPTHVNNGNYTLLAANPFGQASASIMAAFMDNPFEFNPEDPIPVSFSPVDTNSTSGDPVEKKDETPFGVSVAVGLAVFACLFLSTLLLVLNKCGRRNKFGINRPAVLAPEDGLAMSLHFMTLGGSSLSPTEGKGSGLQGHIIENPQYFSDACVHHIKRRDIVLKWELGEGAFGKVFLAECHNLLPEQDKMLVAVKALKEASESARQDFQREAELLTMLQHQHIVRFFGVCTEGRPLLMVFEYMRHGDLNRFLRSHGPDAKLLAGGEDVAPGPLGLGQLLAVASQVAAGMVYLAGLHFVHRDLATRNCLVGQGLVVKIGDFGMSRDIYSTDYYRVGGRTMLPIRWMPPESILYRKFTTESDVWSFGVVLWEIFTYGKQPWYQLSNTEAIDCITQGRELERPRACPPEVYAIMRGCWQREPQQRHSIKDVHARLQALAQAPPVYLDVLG

Row | SMILES | pIC50
1 | Cn1ncc(NC(=O)NCc2ccccc2C(F)(F)F)c1-c1ccccc1 [Compound 42, 1-(1-methyl-5-phenyl-1H-pyrazol-4-yl)-3-[2-(trifluoromethyl)benzyl]urea] | 5.85
2 | Cc1ncc(NC(=O)NCc2cc(F)ccc2C(F)(F)F)c(-c2ccccc2)n1 [Compound 43, 1-[5-fluoro-2-(trifluoromethyl)benzyl]-3-(2-methyl-4-phenylpyrimidin-5-yl)urea] | 5.85
3 | O=C(NCc1ccccc1SC(F)(F)F)Nc1ccnn1-c1ccccc1 [Compound 44, 1-(1-phenyl-1H-pyrazol-5-yl)-3-{2-[(trifluoromethyl)sulfanyl]benzyl}urea] | 6.38

The remaining lines, values ahead:

Row | pIC50 | SMILES
4 | 6.38 | Cc1onc(-c2ccccc2)c1NC(=O)NCc1ccccc1SC(F)(F)F [Compound 45, 1-(5-methyl-3-phenylisoxazol-4-yl)-3-{2-[(trifluoromethyl)sulfanyl]benzyl}urea]
5 | 5.80 | Cn1ncc(NC(=O)NCc2ccccc2OC(F)(F)F)c1-c1ccccc1 [Compound 46, 1-(1-methyl-5-phenyl-1H-pyrazol-4-yl)-3-[2-(trifluoromethoxy)benzyl]urea]
